Data as given in patent publication US10414774B2, “Compound useful for altering the levels of bile acids for the treatment of diabetes and cardiometabolc disease” (Merck Sharp & Dohme Corp., priority 2016, dated 2019).

Each molecule was assayed against T1, Human CYP8B1 (Homo sapiens, UniProt Q9UNU6) (assay: Human CYP8B1 Liver Microsome Assay). Details: Human CYP8B1 IC50, human liver microsomes; substrate 7a-hydroxy-4-cholesten-3-one, NADPH; RapidFire MS detection of 7α,12α-dihydroxy-4-cholesten-3-one.
T1 sequence (Q9UNU6 1-501): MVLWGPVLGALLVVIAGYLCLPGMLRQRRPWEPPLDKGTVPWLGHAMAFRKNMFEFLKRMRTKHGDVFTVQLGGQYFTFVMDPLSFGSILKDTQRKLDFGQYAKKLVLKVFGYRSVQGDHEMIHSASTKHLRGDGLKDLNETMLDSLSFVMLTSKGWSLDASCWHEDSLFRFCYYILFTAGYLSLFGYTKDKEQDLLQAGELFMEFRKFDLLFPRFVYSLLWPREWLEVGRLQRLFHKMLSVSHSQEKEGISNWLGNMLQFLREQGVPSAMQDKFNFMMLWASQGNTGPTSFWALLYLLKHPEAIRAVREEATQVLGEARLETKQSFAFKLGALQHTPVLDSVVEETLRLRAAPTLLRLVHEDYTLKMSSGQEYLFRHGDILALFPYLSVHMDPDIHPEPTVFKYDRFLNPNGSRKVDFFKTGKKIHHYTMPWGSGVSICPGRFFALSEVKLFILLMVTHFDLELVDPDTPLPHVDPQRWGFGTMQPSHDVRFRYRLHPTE

IC50 | Compound
2.8 nM | CC[C@@H]1CN(c2c(C#N)cnc3ccc(Cl)cc23)CC[C@@H]1C(=O)N1CCn2c(nnc2C(F)(F)F)C1 [Example 75b, 6-chloro-4-[(3S,4S)-3-ethyl-4-{[3-(trifluoromethyl)-5,6-dihydro[1,2,4]triazolo[4,3-a]pyrazin-7(8H)-yl]carbonyl}piperidin-1-yl]quinoline-3-carbonitrile]
90 nM | N#Cc1cnc2ccc(Cl)cc2c1N1CCC(C(=O)N2CCc3c(C(F)(F)F)n[nH]c3C2)CC1 [Example 111, 6-chloro-4-(4-{[3-(trfluoromethyl)-1,4,5,7-tetrahydro-6H-pyrazolo[3,4-c]pyridin-6-yl]carbonyl}piperidin-1-yl)quinoline-3-carbonitrile]
987 nM | COc1ccc2c(N3C[C@@H](C)N(C(=O)N4CCn5c(nnc5C(F)(F)F)C4)[C@@H](C)C3)c(C#N)cnc2c1 [Example 83b, 4-((3S,5R)-3,5-dimethyl-4-(3-(trifluoromethyl)-5,6,7,8-tetrahydro-[1,2,4]triazolo[4,3-a]pyrazine-7-carbonyl)piperazin-1-yl)-7-methoxyquinoline-3-carbonitrile]
8.1 nM | CCc1nnc2n1CCN(C(=O)C1CCN(c3c(C#N)cnc4ccc(Cl)cc34)CC1)C2 [Example 106, 6-chloro-4-{4-[(3-ethyl-5,6-dihydro[1,2,4]triazolo[4,3-a]pyrazin-7(8H)-yl)carbonyl]piperidin-1-yl}quinoline-3-carbonitrile]
28 nM | Cc1nc2ccc(Cl)cc2c(N2CC[C@H](C(=O)N3CCc4c(n[nH]c4C(F)(F)F)C3)[C@H](C)C2)c1C#N [Example 93, 6-chloro-2-methyl-4-[(3S,4S)-3-methyl-4-{[3-(trifluoromethyl)-2,4,5,7-tetrahydro-6H-pyrazolo[3,4-c]pyridin-6-yl]carbonyl}piperidin-1-yl]quinoline-3-carbonitrile]
0.4 nM | C[C@@H]1CN(c2c(C#N)cnc3c(F)cc(C4CC4)cc23)CC[C@@H]1C(=O)N1CCn2c(nnc2C(F)(F)F)C1 [Example 86, 6-cyclopropyl-8-fluoro-4-((3S,4S)-3-methyl-4-(3-(trifluoromethyl)-5,6,7,8-tetrahydro-[1,2,4]triazolo[4,3-a]pyrazine-7-carbonyl)piperidin-1-yl)quinoline-3-carbonitrile]
5.8 nM | Cc1nc2ccc(Cl)cc2c(N2CC[C@H](C(=O)N3CCn4cccc4C3)[C@H](C)C2)c1C#N [Example 91, 6-chloro-4-[(3S,4S)-4-(3,4-dihydropyrrolo[1,2-a]pyrazin-2(1H)-ylcarbonyl)-3-methylpiperidin-1-yl]-2-methylquinoline-3-carbonitrile]
1290 nM | N#Cc1cnc2ccc(Cl)cc2c1N1CC[C@]2(C(=O)N3CCn4c(nnc4C(F)(F)F)C3)C[C@@H]2C1 (single isomer, unassigned) [Example 81a]
169 nM | N#Cc1cnc2ccc(Cl)cc2c1N1CCC(F)(C(=O)N2CCn3c(nnc3C(F)(F)F)C2)CC1 [Example 120, 6-chloro-4-(4-fluoro-4-{[3-(trifluoromethyl)-5,6-dihydro[1,2,4]triazolo[4,3-a]pyrazin-7(8H)-yl]carbonyl}piperidin-1-yl)quinoline-3-carbonitrile]
0.35 nM | C[C@@H]1CN(c2c(C#N)cnc3cc(OCC4CC4)ccc23)CC[C@@H]1C(=O)N1CCn2c(nnc2C(F)(F)F)C1 [Example 100, 7-(cyclopropylmethoxy)-4-[(3S,4S)-3-methyl-4-{[3-(trifluoromethyl)-5,6-dihydro[1,2,4]triazolo[4,3-a]pyrazin-7(8H)-yl]carbonyl}piperidin-1-yl]quinoline-3-carbonitrile]
0.3 nM | C[C@@H]1CN(c2c(C#N)cnc3c(F)cc(C4CCC4)cc23)CC[C@@H]1C(=O)N1CCn2c(nnc2C(F)(F)F)C1 [Example 87, 6-cyclobutyl-8-fluoro-4-((3S,4S)-3-methyl-4-(3-(trifluoromethyl)-5,6,7,8-tetrahydro-[1,2,4]triazolo[4,3-a]pyrazine-7-carbonyl)piperidin-1-yl) quinoline-3-carbonitrile]

The next lines start with the molecule.

Compound | IC50
C[C@@H]1CN(c2c(C#N)cnc3c(F)c(C(F)(F)F)ccc23)CC[C@@H]1C(=O)N1CCn2c(nnc2C(F)(F)F)C1 [Example 17, 8-fluoro-4-[(3S,4S)-3-methyl-4-{[3-(trifluoromethyl)-5,6-dihydro[1,2,4]triazolo[4,3-a]pyrazin-7(8H)-yl]carbonyl}piperidin-1-yl]-7-(trifluoromethyl)quinoline-3-carbonitrile] | 0.36 nM
COc1cc2ncc(C#N)c(N3CC[C@H](C(=O)N4CCn5c(nnc5C(F)(F)F)C4)[C@H](C)C3)c2cc1Br [Example 20, 6-bromo-7-methoxy-4-[(3S,4S)-3-methyl-4-{[3-(trifluoromethyl)-5,6-dihydro[1,2,4]triazolo[4,3-a]pyrazin-7(8H)-yl]carbonyl}piperidin-1-yl]quinoline-3-carbonitrile] | 0.24 nM
COc1ccc2c(N3CCC(C(=O)N4CCn5c(nnc5C(F)(F)F)C4)CC3)c(C#N)cnc2c1F [Example 42, 8-fluoro-7-methoxy-4-(4-{[3-(trifluoromethyl)-5,6-dihydro[1,2,4]triazolo[4,3-a]pyrazin-7(8H)-yl]carbonyl}piperidin-1-yl)quinoline-3-carbonitrile] | 49 nM
CC[C@H]1CN(c2c(C#N)cnc3c(F)c(OC)ccc23)CC[C@H]1C(=O)N1CCn2c(nnc2C(F)(F)F)C1 [Example 74a, 4-[(3R,4R)-3-ethyl-4-{[3-(trifluoromethyl)-5,6-dihydro[1,2,4]triazolo[4,3-a]pyrazin-7(8H)-yl]carbonyl}piperidin-1-yl]-8-fluoro-7-methoxyquinoline-3-carbonitrile] | 343 nM
C[C@H]1CN(c2c(C#N)cnc3c(F)c(Cl)ccc23)CC[C@H]1C(=O)N1CCn2c(nnc2C2CC2)C1 [Example 65, 7-chloro-4-{(3R,4R)-4-[(3-cyclopropyl-5,6-dihydro[1,2,4]triazolo[4,3-a]pyrazin-7(8H)-yl)carbonyl]-3-methylpiperidin-1-yl}-8-fluoroquinoline-3-carbonitrile] | 318 nM
COc1ccc2c(N3CC[C@H](C(=O)N4CCn5c(nnc5C(F)(F)F)C4)[C@H](C)C3)c(C#N)cnc2c1F [Example 2, 8-fluoro-7-methoxy-4-[(3S,4S)-3-methyl-4-{[3-(trifluoromethyl)-5,6-dihydro[1,2,4]triazolo[4,3-a]pyrazin-7(8H)-yl]carbonyl}piperidin-1-yl]quinoline-3-carbonitrile] | 0.96 nM
Cc1nc2ccc(Br)cc2c(N2CCC(C(=O)N3CCn4c(nnc4C(F)(F)F)C3)CC2)c1C#N [Example 48, 6-bromo-2-methyl-4-(4-(3-(trifluoromethyl)-5,6,7,8-tetrahydro-[1,2,4]triazolo[4,3-a]pyrazine-7-carbonyl)piperidin-1-yl)quinoline-3-carbonitrile] | 109 nM
C[C@@H]1CN(c2c(C#N)cnc3c(C(F)F)cc(Cl)cc23)CC[C@@H]1C(=O)N1CCn2c(nnc2C(F)(F)F)C1 [Example 3, 6-chloro-8-(difluoromethyl)-4-[(3S,4S)-3-methyl-4-{[3-(trifluoromethyl)-5,6-dihydro[1,2,4]triazolo[4,3-a]pyrazin-7(8H)-yl]carbonyl}piperidin-1-yl]quinoline-3-carbonitrile] | 21 nM
CO[C@@H]1CN(c2c(C#N)cnc3ccc(Cl)cc23)CC[C@@H]1C(=O)N1CCn2c(nnc2C(F)(F)F)C1 [Example 72a, 6-chloro-4-[(3S,4S)-3-methoxy-4-{[3-(trifluoromethyl)-5,6-dihydro[1,2,4]triazolo[4,3-a]pyrazin-7(8H)-yl]carbonyl}piperidin-1-yl]quinoline-3-carbonitrile] | 22 nM
CC(C)Oc1ccc2c(N3CC[C@H](C(=O)N4CCn5c(nnc5C(F)(F)F)C4)[C@H](C)C3)c(C#N)cnc2c1 [Example 64, 4-[(3S,4S)-3-methyl-4-{[3-(trifluoromethyl)-5,6-dihydro[1,2,4]triazolo[4,3-a]pyrazin-7(8H)-yl]carbonyl}piperidin-1-yl]-7-(propan-2-yloxy)quinoline-3-carbonitrile] | 0.3 nM
Cc1nc2ccc(F)cc2c(N2CCC(C(=O)N3CCn4c(nnc4C(F)(F)F)C3)CC2)c1C#N [Example 45, 6-fluoro-2-methyl-4-(4-(3-(trifluoromethyl)-5,6,7,8-tetrahydro-[1,2,4]triazolo[4,3-a]pyrazine-7-carbonyl)piperidin-1-yl)quinoline-3-carbonitrile] | 1150 nM
C[C@@H]1CN(c2c(C#N)cnc3cc(C(F)(F)F)ccc23)CC[C@@H]1C(=O)N1CCn2c(nnc2C(F)(F)F)C1 [Example 24, 4-((3S,4S)-3-methyl-4-(3-(trifluoromethyl)-5,6,7,8-tetrahydro-[1,2,4]triazolo[4,3-a]pyrazine-7-carbonyl)piperidin-1-yl)-7-(trifluoromethyl)quinoline-3-carbonitrile] | 0.4 nM
Cc1nc2c(F)cc(F)cc2c(N2CC[C@H](C(=O)N3CCn4c(nnc4C(F)(F)F)C3)[C@H](C)C2)c1C#N [Example 10, 6,8-difluoro-2-methyl-4-[(3S,4S)-3-methyl-4-{[3-(trifluoromethyl)-5,6-dihydro[1,2,4]triazolo[4,3-a]pyrazin-7(8H)-yl]carbonyl}piperidin-1-yl]quinoline-3-carbonitrile] | 2.8 nM
